Measurements published in patent publication US20250188133A1, “CHIMERIC BACTERIOCINS AND METHOD FOR THE CONTROL OF PSEUDOMONAS” (priority 2022, published 2025).

Columns and labels:
[1] = tested on: P. aeruginosa PAO1; assay: murine keratitis model, invasive strain (C57BL/6 mice); type: in vivo
Description: (§1) The inbred mice of C57BL/6 strain of both sexes in equivalent numbers were used for the research. 2-6 months old, adult female and adult male mice were purchased from the Vilnius University vivarium of laboratory animals. The animals throughout the period of the experiment were given standard chow and drinking water ad libitum. Animals were housed in the individual plastic cages in a 12 h light/dark cycle at 21-23° C. All regulated procedures on living animals were approved by The Lithuanian Ethics Committee of Biomedical Research (Protocol no. B1-442) and were carried out in accordance with the European Union legislation of OECD (directive 2010/63/EU). The experiments were carried out in Biological research center of Lithuanian University of Health Sciences.
(§2) For P. aeruginosa infection and keratitis induction the mice were anesthetized by Ketamine and Xylazine 90:9 mg/kg intraperitoneal injection. The cornea of the left eye of each mouse was visualized under a stereoscopic microscope, and three 1 mm scratches were made using a sterile 25 gauge needle. A 10 μL aliquot containing 4×10^6 cells of P. aeruginosa ATCC 19660 (cytotoxic strain) or PAO1 ATCC 15692 (invasive strain) was applied to the corneal surface. Depending on the experiment, the treatment was started 30 min or 6 h post infection. 10 μl aliquot containing 0.14 mg of tobramycin or 20 μg of S5-PmnH (both containing 0.5% hydroxypropyl methylcellulose (HPMC)) or PBS containing 0.5% HPMC was applied as one drop of substance to the each eye. HPMC is used as artificial tears and was used in order to thicken the tears film and prolong the presence of the applied product on the surface of the cornea. The treatment was continued for five days twice daily. Mice were euthanized by cervical dislocation 1, 3, 5 days post infection, and the eyeballs were collected and homogenized for viable bacteria count.
(§3) The eyes were examined and photographed with a dissection microscope equipped with a digital camera at 1, 3 and 5 dpi to monitor the disease progression. At 1, 3 and 5 dpi disease severity was visually graded by using an established corneal damage scale: 0, the pupil was partially or fully covered by clear or slight opacity; +1, the anterior segment was partially or fully covered by slight opacity; +2, the pupil was partially or fully covered by dense opacity; +3, the entire anterior segment was covered by dense opacity; and +4, corneal perforation^40.
(§4) Histopathology experiments were carried out at Lithuanian University of Health Sciences, Department of Veterinary Pathobiology of Veterinary Academy. One randomly chosen mice of each study group was used for histopathology experiments. Enucleated eyes were preserved in 10% formaldehyde. Eyes were paraffin-embedded, cut into 3-μm-thick sections, deparaffinised, rehydrated and used for preparation of hematoxylin/eosin stained samples.

[2] = tested on: P. aeruginosa ATCC 19660; assay: murine keratitis model, cytotoxic strain (C57BL/6 mice); type: in vivo
Description: as §1, §2, §3, §4

[3] = tested on: P. aeruginosa ATCC 27853; assay: murine lung colonization and treatment (CD1 mice); type: in vivo; settings: 5 h post infection
Description: CD1 male mice were supplied by Charles River (Margate, UK) and were specific pathogen free. Mice were 11 to 15 g on receipt at the facility and were allowed to acclimatize for at least 7 days.
P. aeruginosa ATCC 27853 was recovered from long-term storage (−80° C.) and cultured on cystine-lactose-electrolyte-deficient (CLED) agar at 37° C. under aerobic conditions for approximately 16-24 h. 20 ml of Mueller Hinton broth was inoculated with a single well isolated colony and cultured overnight at 37° C. with shaking at 300 rpm65. The overnight broth was diluted 1:100 in Mueller Hinton broth and 100 ml was cultured in a baffle flask for ˜6 h at 37° C. with shaking at 300 rpm until the broth OD was ˜0.6 (˜mid-exponential phase). 20 ml of culture was centrifuged at 2465 g for 10 minutes and washed in PBS. The pellet was suspended in PBS and the OD600 adjusted to 0.67 (˜2.6×10^8 CFU/ml). The study inoculum was prepared from this by appropriate dilution with PBS. The inoculum concentration was confirmed by quantitative culture on Pseudomonas Selective Agar (PSA). The inoculum concentration for the study was 1.47×10^7 CFU/ml (5.87×10^5 CFU/mouse).
Mice were infected under temporary inhaled 3% isoflurane anesthesia by intranasal (IN) instillation with 40 μl of the inoculum suspension split as 20 μl/nostril.
1 hour post infection 6 mice were sacrificed in order to evaluate the pre-treatment burden in lungs. Treatments were administered IN once at 1 h post infection (50 μl split to 25 μl/nares). Three treatment groups consisting of six mice each were administered S5-PmnH (2.5, 25 and 250 μg). The fourth group of mice (n=6) was administered 200 μg Tobramycin (40 mg/ml injection solution, Hospira UK Ltd, diluted 10 times). The study was terminated at 5 hours post infection for all animals. The clinical conditions and weights were assessed and animals were immediately euthanized using an overdose of pentobarbitone. Following confirmation of death, the lungs were excised and homogenized in ice cold sterile phosphate buffered saline using a Precellys bead beater. The homogenates were quantitatively cultured onto PSA agar and incubated at 37° C. for 24 hours before colonies were counted.

[4] = tested on: P. aeruginosa NCTC 13921; assay: agar disc-diffusion assay; type: cell-based; settings: strain NCTC 13921; 0.3, 3 and 30 μg of protein spotted on discs on CAA agar lawn, overnight
Description: (§5) Overnight P. aeruginosa cultures grown in CAA medium were equalized till OD595=1.0 in CAA and diluted 100×. Sterile cotton swab was briefly submerged in diluted microbial suspension, removing the excess of liquid by pressing it against the container wall. The swab was used for evenly streaking bacteria on plates containing growth medium with CAA solid agar (1.5%). 6 mm diameter sterile Whatman discs were placed on soft-agar and 0.3-30 μg of chimeric pyocins were spotted to paper disks. The plates were incubated overnight at 37° C. and bacteriocin inhibition zones were observed.
(§6) Next, all 25 P. aeruginosa strains were subjected to agar disc-diffusion assay by spotting different amounts of purified pyocin S5 (0.3 μg, 3 μg and 30 μg) on bacteria lawns. Six P. aeruginosa strains were resistant to pyocin S5. Four of these six strains were pyocin S5 and immunity protein-encoding strains—PA14, PAO1, […] and NCTC 13921. Two cystic fibrosis isolates, 12-35708 and 12-29165 were also completely resistant to pyocin S5, despite the absence of S5, or S5 immunity protein coding genes. […] Turbid inhibition zones were detected when 3 μg and 30 μg of S5 were spotted on the lawn of these strains (Table 1, FIG. 3).

[5] = tested on: P. aeruginosa Pr335; assay: agar disc-diffusion assay; type: cell-based; settings: strain Pr335; 0.3, 3 and 30 μg of protein spotted on discs on CAA agar lawn, overnight
Description: as §5, §6

[6] = tested on: P. aeruginosa A19; assay: agar disc-diffusion assay; type: cell-based; settings: strain A19; 0.3, 3 and 30 μg of protein spotted on discs on CAA agar lawn, overnight
Description: as §5, §6

[7] = tested on: P. aeruginosa Boston 41501 (ATCC 27853); assay: agar disc-diffusion assay; type: cell-based; settings: strain Boston; 0.3, 3 and 30 μg of protein spotted on discs on CAA agar lawn, overnight
Description: as §5, §6

[8] = tested on: P. aeruginosa HP40; assay: agar disc-diffusion assay; type: cell-based; settings: strain HP40; 0.3, 3 and 30 μg of protein spotted on discs on CAA agar lawn, overnight
Description: as §5, §6

[9] = tested on: P. aeruginosa HP6; assay: agar disc-diffusion assay; type: cell-based; settings: strain HP6; 0.3, 3 and 30 μg of protein spotted on discs on CAA agar lawn, overnight
Description: as §5, §6

[10] = tested on: P. aeruginosa strains; assay: agar disc-diffusion assay, panel of 25 strains; type: cell-based; settings: panel of 25 P. aeruginosa strains, in words
Description: as §5, §6

[11] = treatment started 30 min post infection

For NC[C@H]1O[C@H](O[C@H]2[C@H](O)[C@@H](O[C@H]3O[C@H](CO)[C@@H](O)[C@H](N)[C@H]3O)[C@H](N)C[C@@H]2N)[C@H](N)C[C@@H]1O [tobramycin, reference compound], the “histological examination of infected treated eyes” value (from here on “histological examination”) ([1]; 1 dpi) was “signs of acute inflammation of cornea”, the “histological examination” value ([1]; 3 dpi) was “thinning of cornea epithelium and strong edema of the corneal stroma” and the “histological examination” value ([1]; day 5) was “local inflammation of cornea, thinning and degeneration of cornea epithelium”. For the same molecule, the “average reduction of bacterial burden vs mock-treated” value ([1]; treatment started 6 h post infection, 1 dpi) was 1.42 log 10 CFU/cornea, the “mice from which no viable bacteria were isolated” value ([1]; treatment started 6 h post infection, 3 dpi, three mice per group) was “three” and the “viable bacteria in cornea, individual mice” value ([1]; treatment started 6 h post infection, 5 dpi, mice with bacteria) was 2.8 log 10 CFU/cornea. The “mice from which no bacteria were isolated” value ([1]; treatment started 6 h post infection, 5 dpi, three mice per group) was “two”, the “histopathology of infected treated eyes” value [2, 11] was “Only weak oedema in the corneal stroma” and the “signs of disease (visual inspection, clinical score)” value [2, 11] was “No signs of disease were observed in majority of samples”. For the same molecule, the “viable bacteria isolated from infected eyes” value ([2]; treatment started 30 min post infection, twice daily, 1, 3 or 5 dpi, 20 μg S5-PmnH or 0.14 mg tobramycin per eye) was “no viable P. aeruginosa were isolated”, the viable bacteria isolated ([2]; treatment started 6 h post infection, 1, 3 or 5 dpi) was “no viable bacteria were isolated” and the clinical score evaluation ([2]; treatment started 6 h post infection, 1 and 3 dpi, two S5-PmnH-treated and one tobramycin-treated mice) was “Only mild disease signs were observed”. The “histopathology of infected treated eyes” value ([2]; treatment started 6 h post infection, 3 and 5 dpi) was “slight thickening of epithelium”, the clinical score evaluation ([2]; treatment started 6 h post infection, 5 dpi) was “all corneas were completely clear” and the “reduction of lung burden vs vehicle” value ([3]; 200 μg/mouse IN once 1 h post infection) was 2.75 log10 CFU/g. For the same molecule, the “reduction of burden below the level of stasis (pre-treatment)” value ([3]; 200 μg/mouse IN once) was 1.23 log10 CFU/g.

B1: S5-Pflu794: chimeric bacteriocin SEQ ID NO: 17: pyocin S5 first segment fused to P. fluorescens Pflu794 killing domain (protein)
chain: MSNDNEVPGSMVIVAQGPDDQYAYEVPPIDSAAVAGNMFGDLIQREIYLQKNIYYPVRSIFEQGTKEKKEINKKVSDQVDGLLKQITQGKREATRQERVDVMSAVLHKMESDLEGYKKTFTKGPFIDYEKQSSLSIYEAWVKIWEKNSWEERKKYPFQQLVRDELERAVAYYKQDSLSEAVKVLRQELNKQKALKEKEDLSQLERDYRTRKANLEMKVQSELDQAGSALPPLVSPTPEQWLERATRLVTQAIADKKQLQTTNNTLIKNSPTPLEKQKAIYNGELLVDEIASLQARLVKLNAETTRRRTEKASDQANNVDIEEAILFTTTFYENLTEKYGEKVSAVAKELAESAKGKTMRSSKEALQTFEKYKDTYNGRFRSRDRREVDRALKSLDKELLSKNLAKFSKAFGSVSKIGDLTEVFIELENSIRTGDWKPLLLTLEGIGLGMAGTYLVAAVFGISATTPLGIVVFAVLMAATSAYIDDDLVKKVNKDLFGF
modifications: S5-Pflu794
For B1, the “Activity in agar disc-diffusion assay” value [4] was “* (activity detected only with 30 μg of protein)”, the “Activity in agar disc-diffusion assay” value [5] was “** (activity detected with 3 μg of protein)” and the “Activity in agar disc-diffusion assay” value [6] was “*** (activity detected with 0.3 μg of protein)”. The “Activity in agar disc-diffusion assay” value [7] was “* (activity detected only with 30 μg of protein)”, the “Activity in agar disc-diffusion assay” value [8] was “* (activity detected only with 30 μg of protein)” and the “Activity in agar disc-diffusion assay” value [9] was “* (activity detected only with 30 μg of protein)”. The “activity spectrum / profile in agar disc diffusion assay” value [10] was “only week activity on 6 tested strains”.
